Assay results: US12018041B2, “Metal tin cyclized perylene diimide derivative, method for preparing the same, and method for using the same” (Dalian University of Technology, priority 2019, dated 2024)

What was measured:
[1] = UV-Vis absorption spectrum in a solution state; format: physicochemical; conditions: compared with the corresponding perylene diimide without tin ring
[2] = Transient absorption spectrum and triplet decay; format: physicochemical; conditions: dynamic absorption fitting at 485 nm in the transient absorption spectrum
Experimental: (2) The transient absorption spectrum of 6-undecylamine derived tin cyclized perylene diimide (shown in FIG. 2) was tested, and a strong excited triplet absorption at 400 nm-515 nm was detected.
The decay time is 17 μs. 6-undecylamine derived tin cyclized perylene diimide has a relatively long triplet time life.

[3] = Singlet oxygen quantum yield by DPBF capture in DCM; format: physicochemical; conditions: absorbance change at 414 nm
Excerpt: (4) The triplet energy of the photosensitizer can be transferred to triplet oxygen molecules (^3O2), to produce singlet oxygen molecules (^1O2). 1,3-diphenylisobenzofuran (DPBF) is used to capture singlet oxygen, and at the same time, DPBF itself is oxidized by ^1O2, resulting in a decrease in the absorption peak of DPBF at 414 nm in the UV-visible absorption spectrum. The singlet oxygen quantum yield of the photosensitizer molecule can be calculated by monitoring the absorbance change of DPBF at 414 nm. FIG. 4 is a graph showing decay of a UV-visible absorption of DPBF in DCM with time under the influence of 6-undecylamine derived tin cyclized perylene diimide as a photosensitizer. It is known from calculation that the singlet oxygen quantum yield of 6-undecylamine derived tin cyclized perylene diimide is 40%.

cervical cancer cells = assay: DCFH-DA reactive oxygen imaging in cervical cancer cells; format: cell-based; conditions: cervical cancer cells with DCFH-DA
Excerpt: (5) The application of photosensitizers to photodynamic therapy requires the photosensitizers to have low cytotoxicity and capability of entering cells, and to achieve better singlet oxygen output in the cells. In cervical cancer cells, the fluorescent probe DCFH-DA, as a reactive oxygen detection reagent, is non-fluorescent and can freely penetrate the cell membrane to enter the cell. The reactive oxygen species (single oxygen) in the cells can oxidize the non-fluorescent DCFH to produce a fluorescent DCF, and the level of the reactive oxygen species can be known by detecting the fluorescence intensity of DCF. […] In the figure, fluorescence images of the cervical cancer cells, which are cultured in the presence of 6-undecylamine derived tin cyclized perylene diimide and DCFH-DA, subjected to no light, and 10 s, 20 s, 30 s of […] green light irradiation are respectively presented from left to right. It is known from the figure that the singlet oxygen generated from photosensitization of 6-undecylamine derived tin cyclized perylene diimide oxidizes DCFH to produce fluorescent DCF, which makes the fluorescence of cervical cancer cells appear by imaging, and the imaging effect becomes better along with the time.

| Compound | Absorption spectrum [1] | Triplet decay time [2] [μs] | Singlet oxygen quantum yield [3] [%] | irradiation time after which fluorescence intensity of cervical cancer cells no longer changes (cervical cancer cells; 420 nm green light irradiation) [s] | singlet oxygen effect in cells (DCF fluorescence) (cervical cancer cells; no light and 10 s, 20 s, 30 s of 420 nm green light irradiation) |
| --- | --- | --- | --- | --- | --- |
| CCC[CH2][Sn]1([CH2]CCC)[c]2cc3c4c(ccc5c6ccc7c8c(c[c]1c(c2c45)c86)C(=O)N(c1ccc(C(C)(C)C)cc1)C7=O)C(=O)N(c1ccc(C(C)(C)C)cc1)C3=O [Example B14] | red shift | 14 | 33 | – | – |
| CCC[CH2][Sn]1([CH2]CCC)[c]2cc3c4c(ccc5c6ccc7c8c(c[c]1c(c2c45)c86)C(=O)N(c1cccc2ccccc12)C7=O)C(=O)N(c1cccc2ccccc12)C3=O [Example B17] | red shift | 11 | 36 | – | – |
| CCC[CH2][Sn]1([CH2]CCC)[c]2cc3c4c(ccc5c6ccc7c8c(c[c]1c(c2c45)c86)C(=O)N(C1CCNCC1)C7=O)C(=O)N(C1CCNCC1)C3=O [Example B22] | red shift | 21 | 44 | – | – |
| CCCCCC(CCCCC)N1C(=O)c2ccc3c4ccc5c6c(c[c]7c(c8[c](cc(c2c38)C1=O)[Sn]7([CH2]CCC)[CH2]CCC)c64)C(=O)N(C(CCCCC)CCCCC)C5=O [6-undecylamine derived tin cyclized perylene diimide] | obvious red shift | 17 | 40 | 20 | good singlet oxygen effect in cells |
| CCC[CH2][Sn]1([CH2]CCC)[c]2cc3c4c(ccc5c6ccc7c8c(c[c]1c(c2c45)c86)C(=O)N(c1cccc2[nH]ncc12)C7=O)C(=O)N(c1cccc2[nH]ncc12)C3=O [Example B16] | red shift | 19 | 46 | – | – |
| CCC[CH2][Sn]1([CH2]CCC)[c]2cc3c4c(ccc5c6ccc7c8c(c[c]1c(c2c45)c86)C(=O)N(CC(C)C)C7=O)C(=O)N(CC(C)C)C3=O [Example B6] | red shift | 18 | 29 | – | – |
| CCC[CH2][Sn]1([CH2]CCC)[c]2cc3c4c(ccc5c6ccc7c8c(c[c]1c(c2c45)c86)C(=O)N(CCCC(C)C)C7=O)C(=O)N(CCCCC(CC)CCC)C3=O (centres unmarked) [Example B10] | red shift | 12 | 26 | – | – |
| CCCCCC(CC(C)CCC)N1C(=O)c2ccc3c4ccc5c6c(c[c]7c(c8[c](cc(c2c38)C1=O)[Sn]7([CH2]CCC)[CH2]CCC)c64)C(=O)N(C(CCCCC)CC(C)CCC)C5=O (centres unmarked) [Example B4] | red shift | 17 | 47 | – | – |
| CCC[CH2][Sn]1([CH2]CCC)[c]2cc3c4c(ccc5c6ccc7c8c(c[c]1c(c2c45)c86)C(=O)N(c1ccncc1)C7=O)C(=O)N(c1ccncc1)C3=O [Example B20] | red shift | 25 | 42 | – | – |
